Measured values reported in publication PMC7112612 (The Journal of Infection, 2013).
Converted amounts (≈) assume the structure as drawn. “And” between values parts separate entries of the source, which are not always exact repeats. Equal values may be shown once. “Also recorded” adds a separate entry of the source. Where a name gives a salt, the structure may show the parent alone.

B1: Betaferon (protein, UniProt P01574 22-187, looked up, variant C17S)
Interferon beta: MSYNLLGFLQRSSNFQSQKLLWQLNGRLEYCLKDRMNFDIPEEIKQLQQFQKEDAALTIYEMLQNIFAIFRQDSSSTGWNETIVENLLANVYHQINHLKTVLEEKLEKEDFTRGKLMSSLHLKRYYGRILHYLKAKEYSHCAWTIVRVEILRNFYFINRLTGYLRN
modifications: lacks N-terminal Met1
B2: Imukin (protein, UniProt P01579 24-161, looked up)
Interferon gamma: QDPYVKEAENLKKYFNAGHSDVADNGTLFLGILKNWKEESDRKIMQSQIVSFYFKLFKNFKDDQSIQKSVETIKEDMNVKFFNSNKKKRDDFEKLTNYSVTDLNVQRKAIHELIQVMAELSPAAKTGKRKRSQMLFRG

test system: influenza A/WSN/1933 (H1N1) virus; assay: microbe, parasite or virus in culture; type: cell-based; conditions: not given

| Molecule | Result of chemical library screening | Selectivity index |
| --- | --- | --- |
| CC[C@H]1CN2CCc3cc(OC)c(OC)cc3[C@@H]2C[C@@H]1C[C@H]1NCCc2cc(OC)c(OC)cc21 [Emetine] | primary hits with protective results |  |
| O=C(O)c1ccccc1Nc1cccc(C(F)(F)F)c1 [Flufenamic acid] | primary hits with protective results | 12.60 |
| Cc1ccc(Cl)c(Nc2ccccc2C(=O)O)c1Cl [Meclofenamate sodium] | primary hits with protective results | 2.00 |
| Sc1ncnc2nc[nH]c12 [Mercaptopurine] | primary hits with protective results | 4.00 |
| C[C@]12CC[C@@H]3c4ccc(O)cc4CC[C@H]3[C@@H]1CC[C@@H]2O [Estradiol] | primary hits with protective results | 3.00 |
| CCc1nc(N)nc(N)c1-c1ccc(Cl)cc1 [Pyrimethamine] | primary hits with protective results | 1.80 |
| COc1c(C)c2c(c(O)c1C/C=C(\C)CCC(=O)O)C(=O)OC2 [Mycophenolic acid] | primary hits with protective results |  |
| Cc1c(Cl)cccc1Nc1ccccc1C(=O)O [Tolfenamic acid] | primary hits with protective results | 8.00 |
| NC(=O)c1ncn([C@@H]2O[C@H](CO)[C@@H](O)[C@H]2O)n1 [Ribavirin] | primary hits with protective results | 8.00 |
| Cc1cccc(Nc2ccccc2C(=O)O)c1C [Mefenamic acid] | primary hits with protective results | 4.00 |
| NC12CC3CC(CC(C3)C1)C2 [Amantadine] | not identified |  |

same assay, conditions: Influenza A virus, H1N1|WSN, MDCK

| Molecule | EC50 [µM] |
| --- | --- |
| CC[C@H]1CN2CCc3cc(OC)c(OC)cc3[C@@H]2C[C@@H]1C[C@H]1NCCc2cc(OC)c(OC)cc21 [Emetine] | 14.7 |
| O=C(O)c1ccccc1Nc1cccc(C(F)(F)F)c1 [Flufenamic acid] | 6.3 |
| Cc1ccc(Cl)c(Nc2ccccc2C(=O)O)c1Cl [Meclofenamate sodium] | 45 |
| Sc1ncnc2nc[nH]c12 [Mercaptopurine] | 26.5 |
| C[C@]12CC[C@@H]3c4ccc(O)cc4CC[C@H]3[C@@H]1CC[C@@H]2O [Estradiol] | 20 |
| CCc1nc(N)nc(N)c1-c1ccc(Cl)cc1 [Pyrimethamine] | 3.1 |
| Cc1c(Cl)cccc1Nc1ccccc1C(=O)O [Tolfenamic acid] | 7.94 |
| NC(=O)c1ncn([C@@H]2O[C@H](CO)[C@@H](O)[C@H]2O)n1 [Ribavirin] | 20 |
| Cc1cccc(Nc2ccccc2C(=O)O)c1C [Mefenamic acid] | 50 |

test system: uninfected MDCK cells; assay: not given; conditions: cited from earlier work

| Molecule | concentration inhibiting replication of uninfected MDCK cells [ng/mL] |
| --- | --- |
| NC(=O)c1ncn([C@@H]2O[C@H](CO)[C@@H](O)[C@H]2O)n1 [Ribavirin] | ≥ 10000 |

test system: Vero cells; assay: not given; conditions: not given

| Molecule | CC50 [IU/ml] |
| --- | --- |
| B1 | 3125 |

test system: SARS-CoV; assay: not given; conditions: mouse, in vivo; cited from earlier work

| Molecule | efficacy against SARS-CoV in an animal model (in words) |
| --- | --- |
| COc1c(C)c2c(c(O)c1C/C=C(\C)CCC(=O)O)C(=O)OC2 [Mycophenolic acid] | ineffective |

test system: not given; assay: not given; conditions: in vivo, iv, 1500 mg; cited from earlier work

| Molecule | average plasma elimination half-life [h] |
| --- | --- |
| COc1c(C)c2c(c(O)c1C/C=C(\C)CCC(=O)OCCN1CCOCC1)C(=O)OC2 [Mycophenolate mofetil] | 16.6 |

same assay, conditions: in vivo, iv; cited from earlier work

| Molecule | peak concentration |
| --- | --- |
| NC(=O)c1ncn([C@@H]2O[C@H](CO)[C@@H](O)[C@H]2O)n1 [Ribavirin] | approximately 24 μg/ml |

same assay, conditions: in vivo, po, 1000 mg; cited from earlier work

| Molecule | average plasma elimination half-life [h] |
| --- | --- |
| COc1c(C)c2c(c(O)c1C/C=C(\C)CCC(=O)OCCN1CCOCC1)C(=O)OC2 [Mycophenolate mofetil] | 17.9 |

same assay, conditions: in vivo, po; cited from earlier work

| Molecule | Serum concentration |
| --- | --- |
| O=C(O)c1ccccc1Nc1cccc(C(F)(F)F)c1 [Flufenamic acid] | 6–20 [200 mg] μg/ml |
| Cc1ccc(Cl)c(Nc2ccccc2C(=O)O)c1Cl [Meclofenamate sodium] | 4.8 [100 mg tds] μg/ml |
| Sc1ncnc2nc[nH]c12 [Mercaptopurine] | 0.09 [50 mg/m^2] μg/ml |
| CCc1nc(N)nc(N)c1-c1ccc(Cl)cc1 [Pyrimethamine] | 0.55 [1500/75 mg of sulfadoxine/pyrimethamine] μg/ml |
| Cc1c(Cl)cccc1Nc1ccccc1C(=O)O [Tolfenamic acid] | 4.1 [300 mg] μg/ml |
| NC(=O)c1ncn([C@@H]2O[C@H](CO)[C@@H](O)[C@H]2O)n1 [Ribavirin] | 2.2 [4 weeks of 600 mg bd] μg/ml |
| Cc1cccc(Nc2ccccc2C(=O)O)c1C [Mefenamic acid] | 10 [1 g] μg/ml |

same assay, conditions: in vivo; cited from earlier work

| Molecule | mean peak serum concentration [IU/ml] |
| --- | --- |
| B1 | 40 |

test system: not listed separately; assay: in vitro; conditions: African green monkey

| Molecule | CC50 [µg/mL] |
| --- | --- |
| COc1c(C)c2c(c(O)c1C/C=C(\C)CCC(=O)O)C(=O)OC2 [Mycophenolic acid] | > 32 |
| NC(=O)c1ncn([C@@H]2O[C@H](CO)[C@@H](O)[C@H]2O)n1 [Ribavirin] | > 1600 |

test system: MERS-CoV; assay: not given; type: cell-based; conditions: not given

| Molecule | concentration achieving 100% plaque reduction [µg/mL] | maximum percentage of plaque reduction [%] | plaque reduction |
| --- | --- | --- | --- |
| COc1c(C)c2c(c(O)c1C/C=C(\C)CCC(=O)O)C(=O)OC2 [Mycophenolic acid] | 6.4 |  |  |
| NC(=O)c1ncn([C@@H]2O[C@H](CO)[C@@H](O)[C@H]2O)n1 [Ribavirin] | 400 |  |  |
| B1 |  | 66.6 | 40–50% |

test system: MERS-CoV; assay: microbe, parasite or virus in culture; type: cell-based; conditions: not given

| Molecule | EC99 | Selectivity index | reduction in viral load [log] | EC50 | EC90 [IU/ml] |
| --- | --- | --- | --- | --- | --- |
| COc1c(C)c2c(c(O)c1C/C=C(\C)CCC(=O)O)C(=O)OC2 [Mycophenolic acid] | 4.86 ± 0.57 µg/mL | >195.12 | > 2 |  |  |
| NC(=O)c1ncn([C@@H]2O[C@H](CO)[C@@H](O)[C@H]2O)n1 [Ribavirin] | 183.17 ± 11.97 µg/mL | >152.98 | > 2 |  |  |
| B1 | 135.70 ± 15.96 IU/ml |  |  | 17.64 IU/ml and 17.64 ± 1.09 IU/ml | 93.31 ± 10.07 |

same assay, conditions: Middle East respiratory syndrome-related coronavirus, Vero

| Molecule | EC50 [µg/mL] | EC90 [µg/mL] |
| --- | --- | --- |
| COc1c(C)c2c(c(O)c1C/C=C(\C)CCC(=O)O)C(=O)OC2 [Mycophenolic acid] | 0.17 ± 0.03 (≈ 0.531 µM) | 2.61 ± 0.34 (≈ 8.15 µM) |
| NC(=O)c1ncn([C@@H]2O[C@H](CO)[C@@H](O)[C@H]2O)n1 [Ribavirin] | 9.99 ± 2.97 (≈ 40.9 µM) | 107 ± 11.2 (≈ 438 µM) |

same assay, conditions: at 16 μg/ml

| Molecule | reduction in viral load [log] |
| --- | --- |
| COc1c(C)c2c(c(O)c1C/C=C(\C)CCC(=O)O)C(=O)OC2 [Mycophenolic acid] | ~4 |

test system: MDCK cells; assay: not given; conditions: dog

| Molecule | TC50 [µM] |
| --- | --- |
| CC[C@H]1CN2CCc3cc(OC)c(OC)cc3[C@@H]2C[C@@H]1C[C@H]1NCCc2cc(OC)c(OC)cc21 [Emetine] | 17.00 |
| O=C(O)c1ccccc1Nc1cccc(C(F)(F)F)c1 [Flufenamic acid] | 79.16 |
| Cc1ccc(Cl)c(Nc2ccccc2C(=O)O)c1Cl [Meclofenamate sodium] | 100.00 |
| Sc1ncnc2nc[nH]c12 [Mercaptopurine] | 100.00 |
| C[C@]12CC[C@@H]3c4ccc(O)cc4CC[C@H]3[C@@H]1CC[C@@H]2O [Estradiol] | 75.00 |
| CCc1nc(N)nc(N)c1-c1ccc(Cl)cc1 [Pyrimethamine] | 5.40 |
| COc1c(C)c2c(c(O)c1C/C=C(\C)CCC(=O)O)C(=O)OC2 [Mycophenolic acid] | 170.00 |
| Cc1c(Cl)cccc1Nc1ccccc1C(=O)O [Tolfenamic acid] | 64.00 |
| NC(=O)c1ncn([C@@H]2O[C@H](CO)[C@@H](O)[C@H]2O)n1 [Ribavirin] | 168.00 |
| Cc1cccc(Nc2ccccc2C(=O)O)c1C [Mefenamic acid] | 200.00 |

test system: MERS-CoV; assay: not given; type: cell-based; conditions: not given; remark: another data set of the same source

| Molecule | anti-MERS-CoV activity at the tested concentrations (in words) | concentration at which CPE was completely absent [µg/mL] |
| --- | --- | --- |
| COc1c(C)c2c(c(O)c1C/C=C(\C)CCC(=O)O)C(=O)OC2 [Mycophenolic acid] | showed anti-MERS-CoV activity | ≥ 0.063 |
| Cc1c(O)cccc1C(=O)N[C@@H](CSc1ccccc1)[C@H](O)CN1C[C@H]2CCCC[C@H]2C[C@H]1C(=O)NC(C)(C)C [nelfinavir mesylate hydrate] | suboptimal EC50 |  |
| Cc1cccc(C)c1OCC(=O)N[C@@H](Cc1ccccc1)[C@@H](O)C[C@H](Cc1ccccc1)NC(=O)[C@H](C(C)C)N1CCCNC1=O [lopinavir] | suboptimal EC50; also recorded: not found to be active |  |
| NC(=O)c1ncn([C@@H]2O[C@H](CO)[C@@H](O)[C@H]2O)n1 [Ribavirin] | showed anti-MERS-CoV activity |  |
| B1 | showed anti-MERS-CoV activity |  |
| B2 | suboptimal EC50 |  |
